What was measured:
[1] = biological target: T1, von Hippel-Lindau disease tumor suppressor/SWI/SNF-related matrix-associated actin-dependent regulator of chromatin subfamily A member 2 (Homo sapiens, UniProt P51531+P40337); experiment: PROTAC activity at VHL/SMARCA2 in human RKO cells assessed as degradation of SMARCA2 incubated for 18 hrs by Western blot analysis; assay type: cell-based
[2] = biological target: T2, von Hippel-Lindau disease tumor suppressor/SWI/SNF-related matrix-associated actin-dependent regulator of chromatin subfamily A member 4 (Homo sapiens, UniProt P51532+P40337); experiment: PROTAC activity at VHL/SMARCA4 in human RKO cells assessed as maximal degradation of SMARCA4 at 10 nM relative to control; assay type: cell-based
MOLT-4 = experiment: Antiproliferative activity against human MOLT-4 cells assessed as reduction in cell viability incubated for 72 hrs by CellTiter-Glo Luminescent assay; assay type: functional, cell-based; settings: MOLT-4, 72 h
[3] = biological target: T2, von Hippel-Lindau disease tumor suppressor/SWI/SNF-related matrix-associated actin-dependent regulator of chromatin subfamily A member 4; experiment: PROTAC activity at VHL/SMARCA4 in human RKO cells assessed as degradation of SMARCA4; assay type: cell-based
[4] = biological target: Protein cereblon/Bromodomain-containing protein 2 (Homo sapiens) (UniProt P25440+Q96SW2); experiment: PROTAC activity at CRBN/BRD2 in human MV4-11 cells assessed as maximal degradation of BRD2 protein level at 0.5 uM incubated for 4 hrs by Western blotting assay relative to control; assay type: cell-based
MV4-11 = experiment: Antitumor activity against human MV4-11 cells xenografted in BALB/c nude mouse assessed as tumor growth inhibition at 25 mg/kg, po administered once daily for 17 days relative to control; assay type: functional; settings: MV4-11, 408 h, time 17 day, read-out: TGI
[5] = biological target: T3, von Hippel-Lindau disease tumor suppressor/Serine/threonine-protein kinase ATR (Homo sapiens) (UniProt Q13535+P40337); experiment: PROTAC activity at […]/VHL in human LoVo cells assessed as maximum protein degradation at 5 uM measured after 24 hrs by immunoblot analysis relative to control; assay type: cell-based
[6] = biological target: T3, von Hippel-Lindau disease tumor suppressor/Serine/threonine-protein kinase ATR (Homo sapiens); experiment: PROTAC activity at […]/VHL in […] human HCT-116 cells assessed as maximum protein degradation at 5 uM measured after 24 hrs by immunoblot analysis relative to control; assay type: cell-based
LoVo [7] = experiment: Antitumor activity against human LoVo cells xenografted in BALB/c mouse assessed as tumor growth inhibition at 50 mg/kg, ip administered once daily for 14 days relative to control; assay type: functional; settings: 336 h, time 14 day, read-out: TGI
LoVo [8] = experiment: Antitumor activity against human LoVo cells xenografted in BALB/c mouse assessed as tumor growth inhibition at 25 mg/kg, ip administered once daily for 14 days relative to control; assay type: functional; settings: 336 h, time 14 day, read-out: TGI
[9] = biological target: T1, von Hippel-Lindau disease tumor suppressor/SWI/SNF-related matrix-associated actin-dependent regulator of chromatin subfamily A member 2; experiment: PROTAC activity at VHL/SMARCA2 in human MV4-11 cells assessed as induction of SMARCA2 degradation at 10 uM by measuring maximal efficacy incubated for 20 hrs by Western blotting analysis relative to control; assay type: cell-based
[10] = biological target: Protein cereblon/Cyclin-dependent kinase 12 (Homo sapiens) (UniProt Q9NYV4+Q96SW2); experiment: PROTAC activity at CRBN/CDK12 in human HeLa cells assessed as maximal degradation of CDK12 at 1 uM measured after 24 hrs by Western blot analysis relative to control; assay type: cell-based
[11] = biological target: T4, Protein cereblon/Wee1-like protein kinase (Homo sapiens) (UniProt P30291+Q96SW2); experiment: PROTAC activity at CRBN/Wee1 in human MV4-11 cells assessed as maximal degradation of Wee1 at 100 nM measured after 2 hrs by Western blot analysis relative to control; assay type: cell-based
[12] = biological target: Protein cereblon/Poly [ADP-ribose] polymerase 1 (Homo sapiens, UniProt P09874+Q96SW2); experiment: PROTAC activity at CRBN/PARP1 in human SW620 cells assessed as degradation of PARP1 measured after 24 hrs by Western blot analysis; assay type: cell-based
[13] = biological target: T4, Protein cereblon/Wee1-like protein kinase (Homo sapiens); experiment: PROTAC activity at CRBN/Wee1 in human MV4-11 cells assessed as maximal degradation of Wee1 at 1 uM measured after 2 hrs by Western blot analysis relative to control; assay type: cell-based

T4 sequence (P30291 whole entry, looked up): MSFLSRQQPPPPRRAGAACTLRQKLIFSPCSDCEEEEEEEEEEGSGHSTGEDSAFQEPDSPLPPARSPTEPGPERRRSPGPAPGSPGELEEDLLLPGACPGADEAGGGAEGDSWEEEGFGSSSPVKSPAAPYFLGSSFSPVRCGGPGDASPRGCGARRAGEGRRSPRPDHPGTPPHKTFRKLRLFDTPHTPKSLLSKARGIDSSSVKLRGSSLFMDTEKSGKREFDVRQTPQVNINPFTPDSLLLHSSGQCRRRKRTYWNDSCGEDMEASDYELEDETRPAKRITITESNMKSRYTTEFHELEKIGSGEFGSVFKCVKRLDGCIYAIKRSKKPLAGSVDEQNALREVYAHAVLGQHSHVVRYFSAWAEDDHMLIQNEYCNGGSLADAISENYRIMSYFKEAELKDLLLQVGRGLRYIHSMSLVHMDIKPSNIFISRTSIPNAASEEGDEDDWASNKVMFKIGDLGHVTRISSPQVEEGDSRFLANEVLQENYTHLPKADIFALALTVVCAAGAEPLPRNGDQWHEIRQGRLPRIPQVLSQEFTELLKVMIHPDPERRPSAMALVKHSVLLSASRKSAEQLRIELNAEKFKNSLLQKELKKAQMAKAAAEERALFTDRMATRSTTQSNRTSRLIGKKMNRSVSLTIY
T4 sequence (Q96SW2 whole entry, looked up): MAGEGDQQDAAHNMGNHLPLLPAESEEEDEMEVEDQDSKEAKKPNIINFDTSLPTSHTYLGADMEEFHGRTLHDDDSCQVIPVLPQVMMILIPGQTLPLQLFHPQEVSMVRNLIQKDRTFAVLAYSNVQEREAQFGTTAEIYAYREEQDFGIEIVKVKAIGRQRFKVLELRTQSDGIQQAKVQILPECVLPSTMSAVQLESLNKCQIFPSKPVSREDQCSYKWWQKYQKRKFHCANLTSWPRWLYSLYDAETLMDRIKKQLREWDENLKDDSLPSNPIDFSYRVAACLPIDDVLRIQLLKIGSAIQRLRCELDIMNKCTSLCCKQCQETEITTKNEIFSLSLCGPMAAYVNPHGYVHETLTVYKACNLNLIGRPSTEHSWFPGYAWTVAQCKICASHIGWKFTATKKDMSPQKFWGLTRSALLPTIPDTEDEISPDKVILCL
T3 sequence (P40337 whole entry, looked up): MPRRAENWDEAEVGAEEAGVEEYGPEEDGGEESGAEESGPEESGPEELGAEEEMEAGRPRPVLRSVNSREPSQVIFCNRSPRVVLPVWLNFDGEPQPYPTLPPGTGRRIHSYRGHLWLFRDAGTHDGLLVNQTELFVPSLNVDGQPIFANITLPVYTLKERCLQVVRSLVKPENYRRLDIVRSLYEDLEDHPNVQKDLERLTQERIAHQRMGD
T3 sequence (Q13535 whole entry, looked up): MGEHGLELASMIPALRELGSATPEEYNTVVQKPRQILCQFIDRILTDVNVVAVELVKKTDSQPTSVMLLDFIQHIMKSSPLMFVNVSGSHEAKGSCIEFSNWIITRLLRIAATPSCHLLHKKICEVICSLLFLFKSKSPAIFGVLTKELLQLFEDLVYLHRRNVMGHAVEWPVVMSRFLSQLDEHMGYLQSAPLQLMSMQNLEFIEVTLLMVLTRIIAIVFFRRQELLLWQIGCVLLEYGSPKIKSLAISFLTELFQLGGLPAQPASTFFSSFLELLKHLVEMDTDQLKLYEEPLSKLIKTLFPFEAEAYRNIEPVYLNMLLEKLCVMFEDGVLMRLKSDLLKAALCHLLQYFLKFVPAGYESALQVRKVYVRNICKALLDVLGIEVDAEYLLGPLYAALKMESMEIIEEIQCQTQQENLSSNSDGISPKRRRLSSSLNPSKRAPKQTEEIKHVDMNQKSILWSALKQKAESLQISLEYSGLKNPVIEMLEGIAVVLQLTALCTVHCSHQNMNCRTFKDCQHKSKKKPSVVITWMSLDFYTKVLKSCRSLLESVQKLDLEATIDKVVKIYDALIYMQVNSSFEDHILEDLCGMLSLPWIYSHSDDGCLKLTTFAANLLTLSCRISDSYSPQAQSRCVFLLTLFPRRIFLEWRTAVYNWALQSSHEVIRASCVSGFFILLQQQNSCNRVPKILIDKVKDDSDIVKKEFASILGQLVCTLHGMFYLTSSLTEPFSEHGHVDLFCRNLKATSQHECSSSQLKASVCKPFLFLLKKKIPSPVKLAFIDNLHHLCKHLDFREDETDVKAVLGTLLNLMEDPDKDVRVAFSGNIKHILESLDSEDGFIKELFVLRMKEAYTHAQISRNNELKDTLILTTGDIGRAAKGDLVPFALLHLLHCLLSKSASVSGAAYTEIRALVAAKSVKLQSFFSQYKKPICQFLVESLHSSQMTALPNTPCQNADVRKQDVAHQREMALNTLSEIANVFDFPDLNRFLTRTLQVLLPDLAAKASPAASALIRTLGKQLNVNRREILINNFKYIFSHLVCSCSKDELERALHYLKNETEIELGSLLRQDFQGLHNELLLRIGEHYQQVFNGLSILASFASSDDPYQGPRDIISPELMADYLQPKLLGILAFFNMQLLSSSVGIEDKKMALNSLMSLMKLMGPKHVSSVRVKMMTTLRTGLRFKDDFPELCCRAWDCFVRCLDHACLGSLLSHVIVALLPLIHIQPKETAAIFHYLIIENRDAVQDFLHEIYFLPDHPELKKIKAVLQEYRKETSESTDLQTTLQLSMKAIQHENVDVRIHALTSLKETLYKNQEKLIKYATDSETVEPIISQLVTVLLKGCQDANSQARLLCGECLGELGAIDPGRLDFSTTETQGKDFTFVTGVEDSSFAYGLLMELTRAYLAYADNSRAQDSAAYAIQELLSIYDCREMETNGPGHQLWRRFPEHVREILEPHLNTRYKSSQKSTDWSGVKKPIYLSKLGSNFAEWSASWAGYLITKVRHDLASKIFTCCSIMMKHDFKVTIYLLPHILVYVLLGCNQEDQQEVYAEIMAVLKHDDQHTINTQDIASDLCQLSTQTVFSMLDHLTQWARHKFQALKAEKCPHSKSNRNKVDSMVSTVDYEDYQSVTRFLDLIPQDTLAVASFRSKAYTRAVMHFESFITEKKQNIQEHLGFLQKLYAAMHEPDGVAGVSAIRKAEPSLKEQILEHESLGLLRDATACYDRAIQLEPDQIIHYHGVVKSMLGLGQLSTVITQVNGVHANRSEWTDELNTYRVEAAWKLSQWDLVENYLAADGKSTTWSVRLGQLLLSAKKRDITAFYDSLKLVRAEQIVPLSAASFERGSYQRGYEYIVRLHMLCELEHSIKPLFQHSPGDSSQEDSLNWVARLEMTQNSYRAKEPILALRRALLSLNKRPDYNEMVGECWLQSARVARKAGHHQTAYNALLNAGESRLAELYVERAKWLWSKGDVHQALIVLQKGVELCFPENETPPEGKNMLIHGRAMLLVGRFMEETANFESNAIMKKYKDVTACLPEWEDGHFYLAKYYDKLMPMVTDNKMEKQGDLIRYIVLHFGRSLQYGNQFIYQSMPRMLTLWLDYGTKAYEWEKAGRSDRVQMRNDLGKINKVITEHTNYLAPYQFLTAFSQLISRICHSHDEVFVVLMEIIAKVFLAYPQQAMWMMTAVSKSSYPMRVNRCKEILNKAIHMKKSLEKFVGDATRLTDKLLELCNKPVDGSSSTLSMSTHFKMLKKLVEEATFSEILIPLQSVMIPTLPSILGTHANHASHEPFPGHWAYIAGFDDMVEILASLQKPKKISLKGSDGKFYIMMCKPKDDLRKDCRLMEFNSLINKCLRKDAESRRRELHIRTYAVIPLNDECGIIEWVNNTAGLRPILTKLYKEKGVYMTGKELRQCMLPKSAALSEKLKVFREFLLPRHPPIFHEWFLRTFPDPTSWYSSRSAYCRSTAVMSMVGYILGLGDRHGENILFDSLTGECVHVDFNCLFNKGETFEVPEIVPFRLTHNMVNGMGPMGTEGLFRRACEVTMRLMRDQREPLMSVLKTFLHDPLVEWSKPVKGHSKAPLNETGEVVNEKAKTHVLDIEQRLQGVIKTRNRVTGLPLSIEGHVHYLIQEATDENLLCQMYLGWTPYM
Sequence of Protein cereblon/Poly [ADP-ribose] polymerase 1 (P09874 whole entry): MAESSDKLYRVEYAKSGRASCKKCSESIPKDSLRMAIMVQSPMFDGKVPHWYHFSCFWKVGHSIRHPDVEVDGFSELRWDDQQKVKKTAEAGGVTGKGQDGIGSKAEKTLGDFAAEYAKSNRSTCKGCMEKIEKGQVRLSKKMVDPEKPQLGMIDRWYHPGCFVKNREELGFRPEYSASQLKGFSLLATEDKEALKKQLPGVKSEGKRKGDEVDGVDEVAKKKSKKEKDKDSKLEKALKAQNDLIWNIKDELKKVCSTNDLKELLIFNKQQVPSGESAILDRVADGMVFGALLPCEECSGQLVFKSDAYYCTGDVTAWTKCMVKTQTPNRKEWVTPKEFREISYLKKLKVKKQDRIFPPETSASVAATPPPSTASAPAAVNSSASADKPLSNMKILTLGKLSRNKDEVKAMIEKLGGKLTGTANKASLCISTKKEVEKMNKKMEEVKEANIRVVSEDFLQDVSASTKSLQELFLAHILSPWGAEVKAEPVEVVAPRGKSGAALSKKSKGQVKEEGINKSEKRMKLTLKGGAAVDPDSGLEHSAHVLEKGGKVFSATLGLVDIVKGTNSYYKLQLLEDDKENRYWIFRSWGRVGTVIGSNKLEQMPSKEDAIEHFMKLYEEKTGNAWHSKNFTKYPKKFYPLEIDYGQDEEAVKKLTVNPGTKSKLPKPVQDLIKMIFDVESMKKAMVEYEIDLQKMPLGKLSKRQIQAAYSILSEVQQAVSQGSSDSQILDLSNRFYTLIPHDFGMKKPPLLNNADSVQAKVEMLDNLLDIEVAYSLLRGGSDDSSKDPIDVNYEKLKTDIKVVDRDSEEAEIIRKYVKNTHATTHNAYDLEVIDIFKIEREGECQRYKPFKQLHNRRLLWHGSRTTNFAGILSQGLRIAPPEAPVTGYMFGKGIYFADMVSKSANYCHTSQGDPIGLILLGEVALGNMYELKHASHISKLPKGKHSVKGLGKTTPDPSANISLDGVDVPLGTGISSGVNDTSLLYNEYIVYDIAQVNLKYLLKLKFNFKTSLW
Sequence of Protein cereblon/Poly [ADP-ribose] polymerase 1 (Q96SW2 whole entry): as the sequence (Q96SW2 whole entry, looked up) above

Q: With `Cc1ncsc1-c1ccc([C@@H](CCCN2CCC(c3ccc4c(c3)n(C3CCCC3)c3nc(=O)c5c(Br)cccc5n43)CC2)NC(=O)[C@@H]2C[C@@H](O)CN2C(=O)[C@@H](NC(=O)C2(F)CC2)C(C)(C)C)cc1` as the molecule, how does the DC50 [1] read?
A: 2 nM

Q: And the Emax [2]?
A: 77%

Q: Which IC50 (MOLT-4) does the source give for `C=CCn1c(=O)c2cnc(Nc3ccc(N4CCN(C)CC4)cc3)nc2n1-c1cccc(C(C)(C)O)n1` [ADAVOSERTIB] here?
A: 800 nM

Q: With `Cc1ncsc1-c1ccc(CNC(=O)[C@@H]2C[C@@H](O)CN2C(=O)[C@@H](NC(=O)C2(F)CC2)C(C)(C)C)c(OCCCN2CCC(c3ccc4c(c3)n(C3CCCC3)c3nc(=O)c5c(Br)cccc5n43)CC2)c1` as the molecule, how does the DC50 [3] read?
A: 78 nM

Q: And the Emax [2]?
A: 46%

Q: How did the Emax [4] turn out when `Nc1ncc(-c2ccc(C(=O)N3CCN(CCCCC(=O)Nc4cccc5c4C(=O)N(C4CCC(=O)NC4=O)C5=O)CC3)cc2)nc1C(=O)Nc1ccccc1` (configuration not stated) was run?
A: > 50%

Q: What about the inhibition in vivo at 25 mg/kg (MV4-11) of the same molecule?
A: 57%

Q: With `C[C@H]1COCCN1c1cc(C2([S@](C)(=O)=NC(=O)CCc3cn(CCCCCCCC(=O)Nc4cccc5c4C(=O)N(C4CCC(=O)NC4=O)C5=O)nn3)CC2)nc(-c2ccnc3[nH]ccc23)n1` (some centres not stated) as the molecule, how does the Emax [5] read?
A: > 80%

Q: And the Emax [6]?
A: > 80%

Q: What about the inhibition in vivo at 50 mg/kg (LoVo [7]) of the same molecule?
A: 51.8%

Q: What about the inhibition in vivo at 25 mg/kg (LoVo [8]) of the same molecule?
A: 35.9%

Q: `COc1ccc(C(=O)/C=C/C(=O)N2CCN(c3cc(-c4ccccc4O)nnc3N)CC2)cc1` was tested. Which Emax [9] did it give?
A: > 95%

Q: With `C=CCn1c(=O)c2cnc(Nc3ccc(N4CCN(CCCC(=O)NCCOCCOCCNc5cccc6c5C(=O)N(C5CCC(=O)NC5=O)C6=O)CC4)cc3)nc2n1-c1cccc(C(C)(C)O)n1` (configuration not stated) as the molecule, how does the Emax [10] read?
A: > 80%

Q: Which IC50 (MOLT-4) does the source give for `C=CCn1c(=O)c2cnc(Nc3ccc(N4CCN(CCCNc5cccc6c5C(=O)N(C5CCC(=O)NC5=O)C6=O)CC4)cc3)nc2n1-c1cccc(C(C)(C)O)n1` (configuration not stated) here?
A: 390 nM

Q: What about the Emax [11] of the same molecule?
A: 50%

Q: `O=C(CCCCCCCCCCC(=O)c1cc(Cc2n[nH]c(=O)c3ccccc23)ccc1F)Cc1cccc2c1CN(C1CCC(=O)NC1=O)C2=O` (configuration not stated) was tested. Which DC50 [12] did it give?
A: 5400 nM

Q: `C=CCn1c(=O)c2cnc(Nc3ccc(N4CCN(CCCC(=O)N[C@H](C(=O)N5C[C@H](O)C[C@H]5C(=O)NCc5ccc(-c6scnc6C)cc5)C(C)(C)C)CC4)cc3)nc2n1-c1cccc(C(C)(C)O)n1` was tested. Which Emax [13] did it give?
A: > 70%
